Tests used:
neutrophil sonicates = assay: Superoxide anion generation by neutrophil sonicates (post-nuclear supernatants, cytochrome c reduction); assay type: biochemical, human; settings: arachidonic acid C20:4 75 μM, phosphatitic acid C10:0 100 μM
Experimental: Neutrophil lipids were saponified (10% KOH in methanol, 37° C., 30 min), extracted (Van Dessel, G. A. F., Lagrou, A. R. Hilderson, H. J. J. & Dierick, W. S. H. In: CRC Handbook of Chromatography (eds Mukherjee, K. D., Weber, N. & Sherma, J.) 321-337 (CRC Press, Boca Raton, 1993)) and separated by CC4 silica (1 gm/10^8 PMN) column chromatography as in FIG. 1f. […] After 2 min (37° C.) in a thermal-jacketed cuvette, β-NAPH (200 μM) was added to initiate reactions and absorbance (550 nm) was monitored at 15 second intervals. […]
To determine O2- production (FIGS. 1a-c), post-nuclear supernatants from neutrophils after sonication (0.1-0.5 mg protein/ml) (as generally described in Bromberg, Y. & Pick, E. Cell. Immunol. 88, 213-221 (1984), the teachings of which are incorporated herein by reference), 100 μM phosphatitic acid (C10:0, Avanti Polar Lipids, Inc.) and lipid extracts (0.1% ethanol) were added to cytochrome c (60 μM), sucrose (170 mM), EGTA (1 mM), FAD (10 μM), NaN3 (2 mM) and either superoxide dismutase (30 ug/ml) or H20 at 0° C. […] After 2 min (37° C.) in a thermal-jacketed cuvette, B-NADPH (200 μM) was added to initiate reactions and absorbance (550 nm) was monitored at 15 second intervals or following termination (10 minutes, 0° C.). […]

PMN = assay: 32PO4 incorporation into non-saponifiable lipids of PMN labeled with γ-32PO4-ATP; assay type: cell-based, human; settings: GM-CSF 25 ng/ml, 60 min, 37° C.; relative to cells without agonist
Experimental: To determine FMLP (10−^7 M)-induced changes in compound VI and VIII mass (inset), radioactive compounds were eluted and inorganic phosphorus levels were measured. In addition, PMN labeled with γ-^32PO4-ATP were incubated in the presence or absence of GM-CSF (25 ng/ml, 60 min, 37° C.)(b) with ^32P content quantitated as above. Values represent the mean±SEM for duplicate determinations from at least two separate PMN. The percent increase after exposure to GM-CSF is relative to parallel incubations with cells in the absence of agonist. **p<0.0005 and * p<0.03 by Student's paired t-test.

[1] = system: electroporated neutrophils; assay: Superoxide anion generation (NADPH oxidase activity) by electroporated neutrophils; assay type: cell-based, human
Source text: To test the impact of compounds VI and VIII on neutrophil responses, the isolated lipids were introduced into neutrophils by electroporation prior to determining NADPH oxidase activity. […] Prenyl cysteine analogues can disrupt G-protein interaction with activated FMLP receptors (Scheer, A. & Gierschik, P. Biochemistry. 34,4952-4961 (1995), the teachings of which are incorporated herein by reference); therefore to determine compound VI's level of action, neutrophil superoxide anion generation was examined in the presence of phorbol 12-myristate 13-acetate (PMA), a potent trigger for O2- production which bypasses cell surface receptors to stimulate protein kinase C and subsequent NADPH assembly (see for example, Baggiolini, M., Boulay, F., Badwey, J. A. & Curnutte, J. T. FASEB J. 7, […] (1993); FIG. 3c).
After electroporation, cells in cytochrome c (0.7 mg/ml) were exposed (10 min, 37° C.) to PMA (10^−7 M), FMLP (10^−7 M) plus cytochalasin b (15 μg/ml), compound VI (1 μM) or compound VIII (1 μM) and supernatants monitored at 550 nm. Values represent the mean±SEM for n≧4.
(§1) Neutrophils (10^7/500 μl) were electroporated (1.65 kV/cm, 250 μF, Ω∞, Invitrogen Electroporator VI) at 0° C. in the presence of 10−^9-10−^6 M compound VI, VIII, FDP, FMP, squalene or vehicle (ethanol 0.2%). After electroporation, cells, in cytochrome c (0.7 mg/ml), were exposed (10 minutes, 37° C.) to either cytochalasin b (5 μg/mL) and FMLP (10^−7 M)(a) or PMA ((10^−7 M)(b) and supernatants monitored at […]. Electroporation gave a 49.9% reduction in FMLP-stimulated NADPH oxidase compared to naive cells. Values (FIGS. 4a and 4b) represent the mean±SEM for n≧3, d≧6. For adhesion (FIGS. 4c and 4d), changes in light transmittance were monitored (as in Fiore, S., Nicolaou, K. C., Caulfield, T., Kataoka, H. & Serhan, C. N. Biochem. J. 266, 25-31 (1990), the teachings of which are incorporated herein by reference) after addition of compounds VI, VIII (1.6 μM) or vehicle (0.5 min) and FMLP (0.5-5 μM) (2.5 min). Cell viability remained>99%. Values represent the mean±SEM for n=3, d=9. 1,4,5-inositol-triphosphate levels were determined (Amersham) in fresh PMN (10^7 cells) exposed (5 minutes, 37° C.) to compound VI, compound VIII (1 μM) or vehicle and stimulated with FMLP (10^−7M, 37° C.) (as in FIG. 4e). % Inhibition after 10 second exposure to FMLP is reported as mean±SEM for n=4, d≧8. *p <0.05 in Student's paired t-test compared with control, while “NS” indicates no significant change compared to incubations in the presence of vehicle (ethanol 0.2%) alone. Stereochemistry of PSDP and PSMP (FIG. 4f) were assigned by routine methods (Poulter, C. D. and Rilling, H. C. Acc. Chem. Res. 11, 307-313, (1978), the teachings of which are hereby incorporated by reference).

human neutrophils = assay: FMLP-stimulated 1,4,5-inositol triphosphate (IP3) formation as surrogate for phospholipase C activity; assay type: cell-based; settings: nM-μM amounts
Experimental: as §1
In addition to PLD, phospholipase C plays a critical role in intracellular signaling via the hydrolysis of inositol lipids to diacyl glyceride (DAG) and inositol trisphosphate (IP3) to effect a cascade of cellular events in response to pro-inflammatory stimuli. DAG activates protein kinases and is converted, in part, to phosphatidic acid by DAG kinase. Therefore, PLC together with DAG kinase provides a second major source of phosphatidic acid in human neutrophils (Agwu, DE, et al., Journal of Clinical Investigation 1991; 88:531). […] To this end, the impact of PSDP on fMLP-stimulated IP3 formation as a surrogate for phospholipase C activity was examined (FIG. 4e).
Amersham's D-myo-inositol 1,4,5-trisphosphate (IP3) [^3H] assay was used for this procedure (Amersham code TRK 1000, including product assay, the contents of which are incorporated herein by reference). The assay is based on procedures developed by Takata S. et al. J. Clin. Invest. 93:499 (1994) and Dillon S. B. et al. J. Biol. Chem. 262:11546 (1987), the contents of which are incorporated herein by reference in their entirety. [drawing 24] […]

neutrophils = assay: Neutrophil homotypic adhesion (aggregation, light transmittance); assay type: cell-based, human
Experimental: as §1

How did the “rate of superoxide anion generation (O2- production)” value (neutrophil sonicates) turn out when `CCCCCCCCCC(=O)OC[C@H](COP(=O)(O)O)OC(=O)CCCCCCCCC` [phosphatitic acid] was run?
Its value is 1.34 nmoles/mg protein/min.

“GM-CSF: granulocyte/monocyte-colony stimulating factor, cytokine” was tested. Which “increase of 32PO4 incorporation into compound VI” value (PMN) did it give?
Its value is 45.0%.

And the “increase of 32PO4 incorporation into compound VIII” value (PMN)?
Its value is 84.1%.

With `CCCCC/C=C\C/C=C\C/C=C\C/C=C\CCCC(=O)O` [arachidonic acid] as the compound, how does the “rate of superoxide anion generation (O2- production)” value (neutrophil sonicates) read?
Its value is 1.38 nmoles/mg protein/min.

With `CC(C)=CCC/C(C)=C/CC/C(C)=C/C1C(COP(=O)(O)O)C1(C)CC/C=C(\C)CCC=C(C)C` (stereo in doubt) [Compound VIII, presqualene monophosphate] as the compound, how does the “influence on PMA-stimulated O2- production” value ([1]; PMA 10^-7 M, electroporated neutrophils) read?
The value was “not significantly influenced”.

And the “inhibition of neutrophil superoxide anion generation” value ([1]; nM-μM amounts)?
The value was “not”.

And the “FMLP-triggered O2- production in the presence of the compound” value ([1]; nM-μM quantities, electroporated neutrophils)?
The value was “unaltered”.

What about the “stimulation of O2- production by the compound alone” value ([1]; no agonist, 1 μM (FIG. 3c)) of the same compound?
The value was “neither compound VI nor VIII alone stimulated”.

What about the “inhibition of 1,4,5-inositol-triphosphate formation” value (human neutrophils) of the same compound?
The value was “not”.

And the “stimulation of adhesion by the compound alone” value (neutrophils; no agonist)?
The value was “neither compound VI nor VIII alone stimulated”.

And the “inhibition of FMLP-stimulated homotypic adhesion” value (neutrophils; μM levels)?
The value was “not”.
